Values after ≈ are worked out from the molar mass of the structure shown. Values joined by “and” are separate entries in the source; they are usually repeats but may differ in a detail not shown here. Equal entries are not always repeated. Where two headings read alike, the source gives them in different places.
Key:
HCC-1954 (HER2+) = assay: In vitro cytotoxicity of ADCs and related reagents, SRB assay; type: cell-based; conditions: Homo sapiens, HCC1954
Experimental: (§1) Sulforhodamine B colorimetric assay for cytotoxicity screening. […] Briefly, cells were seeded in 96-well microtiter plates and allowed to stand for 24 hours in drug-free medium before treatment with vehicle alone or with the tested substances for 72 hours.
(§2) Cell survival was expressed as percentage of control, untreated cell survival.

MCF-7 (HER2−) = assay: as above; type: cell-based; conditions: Homo sapiens, MCF7
Experimental: as §1, §2

MDA-MB-231 (HER2−) = assay: as above; type: cell-based; conditions: Homo sapiens
Experimental: as §1, §2

SK-BR-3 (HER2+) = assay: as above; type: cell-based; conditions: Homo sapiens
Experimental: as §1, §2

[1] = test system: SK-BR-3, HCC-1954, MDA-MB-231 and MCF-7 cells; assay: In vitro cytotoxicity across the HER2 breast cancer cell panel and HER2 selectivity; type: cell-based
Experimental: For SK-BR-3, HCC-1954, MDA-MB-231 and MCF-7 cells, a colorimetric assay using Sulforhodamine B (SRB) was adapted for quantitative measurement of cell growth and cytotoxicity, as described in V. Vichai and K. Kirtikara. Sulforhodamine B colorimetric assay for cytotoxicity screening. Nature Protocols, 2006, 1, 1112-1116. Briefly, cells were seeded in 96-well microtiter plates and allowed to stand for 24 hours in drug-free medium before treatment with vehicle alone or with the tested substances for 72 hours.
as §2
Standard dose-response (DR) curves for 72 hours incubation with the tested substances were performed.

NB 4 (CD13+) = assay: In vitro cytotoxicity of ADCs and related reagents, MTT assay; type: cell-based, human; conditions: NB-4 cells, geometric mean of the IC50 values of three experiments; for IC50: read-out: IC50 NB-4 (CD13 positive)
Experimental: (§3) Briefly, cells were seeded in 96-well trays and treated as above and after 72 hours of exposure to the tested substances cellular viability was estimated from conversion of MTT (Sigma, St Louis, MO, USA) to its coloured reaction product, MTT-formazan, which was dissolved in DMSO to measure its absorbance at 540 nm in a microplate spectrophotometer.
as §2

RPMI 8226 (CD13−) = assay: as above; type: cell-based, human; conditions: RPMI8226 cells, geometric mean of the IC50 values of three experiments; for IC50: read-out: IC50 RPMI8226 (CD13 negative)
Experimental: as §3, §2

Raji (CD13−) = assay: as above; type: cell-based, human; conditions: Raji cells, geometric mean of the IC50 values of three experiments; for IC50: read-out: IC50 Raji (CD13 negative)
Experimental: as §3, §2

[2] = test system: HT-1080, NB 4, Raji and RPMI 8226 cells; assay: In vitro cytotoxicity across the CD13 cell panel and CD13 selectivity; type: cell-based, human; conditions: CD13 positive and negative cell lines
From the text: as §2

HT-1080 (CD13+) = assay: In vitro cytotoxicity of ADCs and related reagents, MTT assay; type: cell-based; conditions: Homo sapiens, read-out: IC50 HT-1080 (CD13 positive); HT-1080 cells; geometric mean of the IC50 values of three experiments
From the text: as §2

A549 = type: cell-based; conditions: A549, 72 hours treatment, SRB
From the text: (§4) Evaluation of Cytotoxic Activity Using the SRB and the MTT Colorimetric Assays

PSN1 = type: cell-based; conditions: PSN1, 72 hours treatment, SRB
From the text: as §4

HT29 = assay: cells; type: cell-based; conditions: HT29, 72 hours treatment, SRB
From the text: as §4

MDA-MB-231 = assay: cells; type: cell-based; conditions: MDA-MB-231, 72 hours treatment, SRB
From the text: as §4

[3] = HCC-1954, HER2 positive, 72 hours, read-out: IC50
[4] = MCF-7, HER2 negative, 72 hours, read-out: IC50
[5] = MDA-MB-231, HER2 negative, 72 hours, read-out: IC50
[6] = SK-BR-3, HER2 positive, 72 hours, read-out: IC50
[7] = Homo sapiens, read-out: IC50 values, range over the four cell lines
[8] = Homo sapiens, read-out: geometric mean IC50 value across the whole cell panel
[9] = read-out: LC50 (the source's name)

COc1c(C)cc2c(c1O)[C@@H]1[C@@H]3[C@@H]4SC[C@]5(N[C@@H](CNC(=O)OCc6ccc(NC(=O)[C@H](CCCNC(N)=O)NC(=O)[C@@H](NC(=O)CCCCCN7C(=O)C=CC7=O)C(C)C)cc6)Cc6c5[nH]c5ccccc65)C(=O)OC[C@@H](c5c6c(c(C)c(OC(C)=O)c54)OCO6)N3[C@@H](C#N)[C@H](C2)N1C [DL 1]
IC50 (HCC-1954 (HER2+); [3]): 0.18 µg/mL and 129 nM
IC50 (MCF-7 (HER2−); [4]): 0.433 µg/mL and 311 nM
IC50 (MDA-MB-231 (HER2−); [5]): 0.0728 µg/mL and 52.3 nM
IC50 (SK-BR-3 (HER2+); [6]): 0.116 µg/mL and 83.1 nM
IC50 [1, 7]: 0.07 µg/mL to 0.43 µg/mL and 52.3 nM to 311 nM
IC50 [1, 8]: 0.16 µg/mL and 115 nM

COc1c(C)cc2c(c1O)[C@@H]1[C@@H]3[C@@H]4SC[C@]5(N[C@@H](CN)Cc6c5[nH]c5ccccc65)C(=O)OC[C@@H](c5c6c(c(C)c(OC(C)=O)c54)OCO6)N3[C@@H](C#N)[C@H](C2)N1C [11-R]
IC50 NB-4 (CD13 positive) (NB 4 (CD13+)): 0.46 ng/mL (≈ 0.58 nM)
IC50 (NB 4 (CD13+)): 0.58 nM
IC50 RPMI8226 (CD13 negative) (RPMI 8226 (CD13−)): 0.928 ng/mL (≈ 1.17 nM)
IC50 (RPMI 8226 (CD13−)): 1.17 nM
IC50 Raji (CD13 negative) (Raji (CD13−)): 0.967 ng/mL (≈ 1.22 nM)
IC50 (Raji (CD13−)): 1.22 nM
geometric mean IC50 value across the whole cell panel ([1]; SK-BR-3, HCC-1954, MDA-MB-231, MCF-7): 0.79 ng/mL
IC50 ([1]; SK-BR-3, HCC-1954, MDA-MB-231, MCF-7, read-out: geometric mean IC50 value across the whole cell panel): 0.994 nM
geometric mean IC50 value across the whole cell panel [2]: 0.84 ng/mL
IC50 ([2]; read-out: geometric mean IC50 value across the whole cell panel): 1.06 nM

COc1c(C)cc2c(c1O)[C@@H]1[C@@H]3[C@@H]4SC[C@]5(N[C@@H](CNC(=O)OCc6ccc(NC(=O)[C@H](C)NC(=O)[C@@H](NC(=O)CCOCCOCCOCCOCCNC(=O)CCN7C(=O)C=CC7=O)C(C)C)cc6)Cc6c5[nH]c5ccccc65)C(=O)OC[C@@H](c5c6c(c(C)c(OC(C)=O)c54)OCO6)N3[C@@H](O)[C@H](C2)N1C [DL 5]
IC50 (HCC-1954 (HER2+); [3]): 0.191 µg/mL and 127 nM
IC50 (MCF-7 (HER2−); [4]): 0.17 µg/mL and 113 nM
IC50 (MDA-MB-231 (HER2−); [5]): 0.0981 µg/mL and 65.3 nM
IC50 (SK-BR-3 (HER2+); [6]): 0.0981 µg/mL and 65.3 nM
IC50 [1, 7]: 0.1 µg/mL to 0.19 µg/mL and 65.3 nM to 127 nM
IC50 [1, 8]: 0.13 µg/mL and 88.4 nM

COc1c(C)cc2c(c1O)[C@@H]1[C@@H]3[C@@H]4SC[C@]5(N[C@@H](CNC(=O)OCc6ccc(NC(=O)[C@H](C)NC(=O)[C@@H](NC(=O)CCOCCOCCOCCOCCNC(=O)CCN7C(=O)C=CC7=O)C(C)C)cc6)Cc6c5[nH]c5ccccc65)C(=O)OC[C@@H](c5c6c(c(C)c(OC(C)=O)c54)OCO6)N3[C@@H](C#N)[C@H](C2)N1C [DL 3]
IC50 (HCC-1954 (HER2+); [3]): 0.24 µg/mL and 159 nM
IC50 (MCF-7 (HER2−); [4]): 0.279 µg/mL and 185 nM
IC50 (MDA-MB-231 (HER2−); [5]): 0.15 µg/mL and 99.3 nM
IC50 (SK-BR-3 (HER2+); [6]): 0.16 µg/mL and 106 nM
IC50 [1, 7]: 0.15 µg/mL to 0.28 µg/mL and 99.3 nM to 185 nM
IC50 [1, 8]: 0.2 µg/mL and 133 nM

COc1c(C)cc2c(c1O)[C@@H]1[C@@H]3[C@@H]4SC[C@]5(N[C@@H](CNC(=O)OCc6ccc(NC(=O)[C@H](CCCNC(N)=O)NC(=O)[C@@H](NC(=O)CCOCCOCCOCCOCCNC(=O)CCN7C(=O)C=CC7=O)C(C)C)cc6)Cc6c5[nH]c5ccccc65)C(=O)OC[C@@H](c5c6c(c(C)c(OC(C)=O)c54)OCO6)N3[C@@H](C#N)[C@H](C2)N1C [DL 2]
IC50 (HCC-1954 (HER2+); [3]): 0.31 µg/mL and 194 nM
IC50 (MCF-7 (HER2−); [4]): 0.469 µg/mL and 294 nM
IC50 (MDA-MB-231 (HER2−); [5]): 0.2 µg/mL and 125 nM
IC50 (SK-BR-3 (HER2+); [6]): 0.2 µg/mL and 125 nM
IC50 [1, 7]: 0.2 µg/mL to 0.47 µg/mL and 125 nM to 294 nM
IC50 [1, 8]: 0.28 µg/mL and 173 nM

COc1c(C)cc2c(c1O)[C@@H]1[C@@H]3[C@@H]4SC[C@]5(N[C@@H](CN)Cc6c5[nH]c5ccccc65)C(=O)OC[C@@H](c5c6c(c(C)c(OC(C)=O)c54)OCO6)N3[C@@H](O)[C@H](C2)N1C [12-R]
IC50 (HCC-1954 (HER2+); [3]): 0.00127 µg/mL and 1.62 nM
IC50 (MDA-MB-231 (HER2−); [5]): 0.000493 µg/mL and 0.629 nM
IC50 (SK-BR-3 (HER2+); [6]): 0.000441 µg/mL and 0.562 nM
IC50 (HT-1080 (CD13+)): 0.0011 µg/mL and 1.4 nM
IC50 (NB 4 (CD13+); Homo sapiens): 0.00033 µg/mL and 0.421 nM
IC50 (RPMI 8226 (CD13−); Homo sapiens, RPMI-8226): 0.00083 µg/mL and 1.06 nM
IC50 (Raji (CD13−); Homo sapiens): 0.00047 µg/mL and 0.6 nM
IC50 [1, 7]: 0.0004 µg/mL to 0.0013 µg/mL and 0.562 nM to 1.62 nM
IC50 [1, 8]: 0.00071 µg/mL and 0.906 nM
IC50 [2, 7]: 0.0003 µg/mL to 0.0011 µg/mL and 0.421 nM to 1.4 nM
IC50 [2, 8]: 0.0006 µg/mL and 0.78 nM

COc1c(C)cc2c(c1O)C1C3C4SCC5(NC(COC(C)=O)Cc6c5[nH]c5ccccc65)C(=O)OCC(c5c6c(c(C)c(OC(C)=O)c54)OCO6)N3C(C#N)C(C2)N1C (stereo not drawn) [3a-S]
GI50 (A549): 3.11 nM
LC50 (concentration giving 50% net cell kill) (A549): > 120 nM
TGI (A549): 3.23E-09 Molar
GI50 (PSN1): 2.15 nM
TGI (PSN1): 3.59E-09 Molar
CC50 (PSN1; [9]): 12 nM
GI50 (HT29): 2.99 nM
TGI (HT29): 3.23E-09 Molar
CC50 (HT29; [9]): > 120 nM
GI50 (MDA-MB-231): 2.87 nM
TGI (MDA-MB-231): 3.59E-09 Molar
CC50 (MDA-MB-231; [9]): 4.9 nM

COc1ccc2[nH]c3c(c2c1)C[C@H](CN)N[C@]31CS[C@@H]2c3c(OC(C)=O)c(C)c4c(c3[C@H](COC1=O)N1[C@@H]2[C@H]2c3c(cc(C)c(OC)c3O)C[C@@H]([C@@H]1O)N2C)OCO4 [27-R]
TGI (A549): 3.93E-09 Molar
TGI (PSN1): 1.17E-09 Molar
TGI (HT29): 5.53E-10 Molar
TGI (MDA-MB-231): 5.41E-10 Molar

COc1c(C)cc2c(c1O)[C@@H]1[C@@H]3[C@@H]4SC[C@]5(N[C@@H](CNC(=O)OCc6ccc(NC(=O)[C@H](CCCNC(N)=O)NC(=O)[C@@H](NC(=O)CCCCCN7C(=O)C=CC7=O)C(C)C)cc6)Cc6c5[nH]c5ccccc65)C(=O)OC[C@@H](c5c6c(c(C)c(OC(C)=O)c54)OCO6)N3[C@@H](O)[C@H](C2)N1C [DL 6]
IC50 (HCC-1954 (HER2+); HCC-1954 cells, 72 hours incubation, read-out: IC50 HCC-1954 (HER2 positive)): 0.171 µg/mL and 124 nM
IC50 (MCF-7 (HER2−); MCF-7 cells, 72 hours incubation, read-out: IC50 MCF-7 (HER2 negative)): 0.273 µg/mL and 197 nM
IC50 (MDA-MB-231 (HER2−); MDA-MB-231 cells, 72 hours incubation, read-out: IC50 MDA-MB-231 (HER2 negative)): 0.0429 µg/mL and 31 nM
IC50 (SK-BR-3 (HER2+); SK-BR-3 cells, 72 hours incubation, read-out: IC50 SK-BR-3 (HER2 positive)): 0.0709 µg/mL and 51.3 nM
IC50 [1, 7]: 0.04 µg/mL to 0.3 µg/mL and 31 nM to 197 nM
IC50 [1, 8]: 0.11 µg/mL and 78.9 nM

COc1ccc2[nH]c3c(c2c1)C[C@@H](CN)N[C@]31CS[C@@H]2c3c(OC(C)=O)c(C)c4c(c3[C@H](COC1=O)N1[C@@H]2[C@H]2c3c(cc(C)c(OC)c3O)C[C@@H]([C@@H]1O)N2C)OCO4 [27-S]
TGI (A549): 1.12E-08 Molar
TGI (PSN1): 2.83E-09 Molar
TGI (HT29): 1.35E-09 Molar

COc1c(C)cc2c(c1O)[C@@H]1[C@@H]3[C@@H]4SC[C@]5(N[C@@H](CN)Cc6c5oc5ccccc65)C(=O)OC[C@@H](c5c6c(c(C)c(OC(C)=O)c54)OCO6)N3[C@@H](C#N)[C@H](C2)N1C [46-R]
IC (TGI) (HT29; Homo sapiens, HT-29): 1.39 nM
IC (TGI) (MDA-MB-231; Homo sapiens): 1.39 nM
